Here are results for 15 molecules from PubChem BioAssay AID180 (DTP/NCI, 2004).

The test system of the assay is BDF1 mice, Adenocarcinoma 755 s.c., tumor weight T/C. Nature of the assay: NCI In Vivo Anticancer Drug Screen. Data for tumor model Adenocarcinoma 755 (subcutaneous) in B6D2F1 (BDF1) mice. The note with it: endpoint: mean tumor weight, higher = larger tumour. The method in brief:
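Tumor-bearing mice receive test compound while controls get vehicle alone. Antitumor effect is scored from survival or tumor dimensions as a T/C quotient.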

[1] abbreviates: dose: 15.0 mg/kg/injection, schedule: Q01DX011 (ip), vehicle: carboxymethylcellulose (CMC).
The mark [2] stands for this setting: dose: 30.0 mg/kg/injection, schedule: Q01DX011 (ip), vehicle: carboxymethylcellulose (CMC).
[3] abbreviates: dose: 60.0 mg/kg/injection, schedule: Q01DX011 (ip), vehicle: carboxymethylcellulose (CMC).
Where [4] appears, read: dose: 120.0 mg/kg/injection, schedule: Q01DX011 (ip), vehicle: carboxymethylcellulose (CMC).
Where [5] appears, read: dose: 240.0 mg/kg/injection, schedule: Q01DX011 (ip), vehicle: carboxymethylcellulose (CMC).

SMILES strings stand for the structures. Several values for one entry are separate records, joined by “and”; a condition that tells them apart may be missing. Equal values may be shown once.

As for `CCCCN=NNc1nc[nH]c1C(N)=O`, the T/C (as a rule, the ratio of treated to control) reads like this: (dose: 16.0 mg/kg/injection, schedule: Q01DX011 (ip), vehicle: methylcellulose (MC)) 124 % of control; (dose: 31.0 mg/kg/injection, schedule: Q01DX011 (ip), vehicle: methylcellulose (MC)) 75 % of control; (dose: 62.0 mg/kg/injection, schedule: Q01DX011 (ip), vehicle: methylcellulose (MC)) 79 % of control.

Regarding `Cn1c(Cl)nc2nc(Cl)nc(Cl)c21`, for the setting “dose: 7.5 mg/kg/injection, schedule: Q01DX011 (ip), vehicle: carboxymethylcellulose (CMC)”, the T/C is 110 % of control.

For the molecule `O=C(CCCl)N1CCN(C(=O)CCCl)CC1`, the T/C is 64 % of control (dose: 11.25 mg/kg/injection, schedule: Q01DX011 (ip), vehicle: methylcellulose (MC)); 66 % of control (dose: 22.5 mg/kg/injection, schedule: Q01DX011 (ip), vehicle: methylcellulose (MC)); 86 % of control (dose: 44.0 mg/kg/injection, schedule: Q01DX011 (ip), vehicle: saline); 80 % of control (dose: 45.0 mg/kg/injection, schedule: Q01DX011 (ip), vehicle: methylcellulose (MC)); 63 % of control (dose: 87.5 mg/kg/injection, schedule: Q01DX011 (ip), vehicle: saline); 56 % of control (dose: 90.0 mg/kg/injection, schedule: Q01DX011 (ip), vehicle: methylcellulose (MC)). Moreover, the T/C runs as follows: (dose: 175.0 mg/kg/injection, schedule: Q01DX011 (ip), vehicle: methylcellulose (MC)) 26 % of control and 33 % of control and 50 % of control; (dose: 175.0 mg/kg/injection, schedule: Q01DX011 (ip), vehicle: saline) 70 % of control; (dose: 263.0 mg/kg/injection, schedule: Q01DX011 (ip), vehicle: saline) 40 % of control.

As to `O=C(O)c1ccc(-c2ccccc2)cc1`, the T/C (dose: 200.0 mg/kg/injection, schedule: Q01DX011 (ip), vehicle: carboxymethylcellulose (CMC)) was 80 % of control.

As for `CSc1nc(N)nc2nc[nH]c12`, the T/C runs as follows: (dose: 0.6 mg/kg/injection, schedule: Q01DX011 (ip), vehicle: carboxymethylcellulose (CMC)) 51 % of control; (dose: 1.25 mg/kg/injection, schedule: Q01DX011 (ip), vehicle: carboxymethylcellulose (CMC)) 55 % of control; (dose: 2.5 mg/kg/injection, schedule: Q01DX011 (ip), vehicle: carboxymethylcellulose (CMC)) 75 % of control; (dose: 5.0 mg/kg/injection, schedule: Q01DX011 (ip), vehicle: carboxymethylcellulose (CMC)) 28 % of control; under setting [1], 1 % of control.

As to `[N-]=[N+]=C1N=CN=C1c1ncn[nH]1`, the T/C (dose: 25.0 mg/kg/injection, schedule: Q01DX011 (ip), vehicle: carboxymethylcellulose (CMC)) is 103 % of control.

`C[C@H]1C[C@@H]2[C@H](C(=O)C[C@@]3(C)[C@H]2CC[C@]3(O)C(=O)CO)[C@@]2(C)C=CC(=O)C=C12`: the T/C (dose: 50.0 mg/kg/injection, schedule: Q01DX011 (sc), vehicle: steriod suspending solution) was 30 % of control and the T/C (dose: 100.0 mg/kg/injection, schedule: Q01DX011 (sc), vehicle: steriod suspending solution) was 23 % of control.

Turning to `C[C@@H]1CN(C(=O)CCOS(C)(=O)=O)[C@@H](C)CN1C(=O)CCOS(C)(=O)=O`, the T/C runs as follows: (dose: 4.0 mg/kg/injection, schedule: Q01DX011 (ip), vehicle: saline) 95 % of control; (dose: 8.0 mg/kg/injection, schedule: Q01DX011 (ip), vehicle: saline) 65 % of control; (dose: 9.4 mg/kg/injection, schedule: Q01DX011 (ip), vehicle: carboxymethylcellulose (CMC)) 104 % of control; under setting [1], 61 % of control; (dose: 16.0 mg/kg/injection, schedule: Q01DX011 (ip), vehicle: saline) 60 % of control; under setting [2], 32 % of control. Also, the T/C is 21 % of control (dose: 33.0 mg/kg/injection, schedule: Q01DX011 (ip), vehicle: carboxymethylcellulose (CMC)); 52 % of control (dose: 33.0 mg/kg/injection, schedule: Q01DX011 (ip), vehicle: saline); 59 % of control and 62 % of control (dose: 37.5 mg/kg/injection, schedule: Q01DX011 (ip), vehicle: carboxymethylcellulose (CMC)); 27 % of control (dose: 50.0 mg/kg/injection, schedule: Q01DX011 (ip), vehicle: carboxymethylcellulose (CMC)); 15 % of control (dose: 50.0 mg/kg/injection, schedule: Q01DX011 (ip), vehicle: saline); 5 % of control under setting [3]. In addition, the T/C was 9 % of control and 15 % of control and 23 % of control (dose: 75.0 mg/kg/injection, schedule: Q01DX011 (ip), vehicle: carboxymethylcellulose (CMC)); 10 % of control (dose: 112.5 mg/kg/injection, schedule: Q01DX011 (ip), vehicle: carboxymethylcellulose (CMC)); 4 % of control under setting [4].

Consider `O=c1[nH]c2[nH]c(S(=O)(=O)O)nc(=S)c2[nH]1`, for which the T/C by setting is: (dose: 75.0 mg/kg/injection, schedule: Q01DX011 (ip), vehicle: methylcellulose (MC)) 43 % of control; (dose: 150.0 mg/kg/injection, schedule: Q01DX011 (ip), vehicle: methylcellulose (MC)) 55 % of control; (dose: 300.0 mg/kg/injection, schedule: Q01DX011 (ip), vehicle: methylcellulose (MC)) 67 % of control; (dose: 600.0 mg/kg/injection, schedule: Q01DX011 (ip), vehicle: methylcellulose (MC)) 28 % of control.

As for `Cc1ccccc1-c1nc2c(N)nc(N)nc2nc1N`, the T/C is 83 % of control (dose: 50.5 mg/kg/injection, schedule: Q01DX011 (ip), vehicle: carboxymethylcellulose (CMC)); 54 % of control and 75 % of control (dose: 57.0 mg/kg/injection, schedule: Q01DX011 (ip), vehicle: methylcellulose (MC)); 75 % of control (dose: 101.0 mg/kg/injection, schedule: Q01DX011 (ip), vehicle: carboxymethylcellulose (CMC)); 48 % of control and 52 % of control (dose: 113.0 mg/kg/injection, schedule: Q01DX011 (ip), vehicle: methylcellulose (MC)); 68 % of control (dose: 202.0 mg/kg/injection, schedule: Q01DX011 (ip), vehicle: carboxymethylcellulose (CMC)); 82 % of control (dose: 225.0 mg/kg/injection, schedule: Q01DX011 (ip), vehicle: methylcellulose (MC)).

On to `CC(C)Cn1cnc2c(SC(C)C)nc(N)nc21`, for which the T/C was 56 % of control (dose: 6.25 mg/kg/injection, schedule: Q01DX011 (ip), vehicle: methylcellulose (MC)); 19 % of control (dose: 12.5 mg/kg/injection, schedule: Q01DX011 (ip), vehicle: methylcellulose (MC)); 4 % of control (dose: 25.0 mg/kg/injection, schedule: Q01DX011 (ip), vehicle: methylcellulose (MC)); 1 % of control (dose: 50.0 mg/kg/injection, schedule: Q01DX011 (ip), vehicle: methylcellulose (MC)).

With `CC(C)CCSc1nc(N)nc2nc[nH]c12`, the T/C is 59 % of control (dose: 4.68 mg/kg/injection, schedule: Q01DX011 (ip), vehicle: methylcellulose (MC)); 29 % of control (dose: 9.37 mg/kg/injection, schedule: Q01DX011 (ip), vehicle: methylcellulose (MC)); 21 % of control (dose: 18.75 mg/kg/injection, schedule: Q01DX011 (ip), vehicle: methylcellulose (MC)); 12 % of control (dose: 37.5 mg/kg/injection, schedule: Q01DX011 (ip), vehicle: methylcellulose (MC)).

As for `O=C(Nc1ccc(N=Nc2ccc(O)c(C(=O)O)c2)cc1)c1ccc(C(=O)Nc2ccc(N=Nc3ccc(O)c(C(=O)O)c3)cc2)cc1`, the T/C is, setting by setting: under setting [2], 92 % of control; under setting [3], 75 % of control; under setting [4], 102 % of control; under setting [5], 98 % of control.

With `Nc1ncc(N)c(N)n1`, the T/C was 89 % of control under setting [2], 116 % of control under setting [3], 111 % of control under setting [4] and 96 % of control under setting [5].

For `CCCn1cnc2c(SCc3ccc(Br)cc3)nc(N)nc21`, the T/C reads like this: (dose: 7.8 mg/kg/injection, schedule: Q01DX011 (ip), vehicle: methylcellulose (MC)) 58 % of control; (dose: 15.6 mg/kg/injection, schedule: Q01DX011 (ip), vehicle: methylcellulose (MC)) 57 % of control; (dose: 31.25 mg/kg/injection, schedule: Q01DX011 (ip), vehicle: methylcellulose (MC)) 20 % of control; (dose: 62.5 mg/kg/injection, schedule: Q01DX011 (ip), vehicle: methylcellulose (MC)) 21 % of control and 23 % of control.
